From patent US11980188B2, “Spiro cyclohexanedione derivates as herbicides” (SYNGENTA PARTICIPATIONS AG, priority 2018, dated 2024)

Legend:
Experiment in all cases: Glasshouse herbicide test, pre- and post-emergence, percentage damage
Type in all cases: in vivo
Setaria faberi (SETFA) = details: 250 g/h, evaluated after 13 days, percentage damage on five point scale; for SETFA POST: post-emergence; for SETFA PRE: pre-emergence
Method: (§1) Seeds of a variety of test species are sown in standard soil in pots (Lolium perenne (LOLPE), Setaria faberi (SETFA), Alopecurus myosuroides (ALOMY), Echinochloa crus-galli (ECHCG), Avena fatua (AVEFA)). After cultivation for one day (pre-emergence) or after 8 days cultivation (post-emergence) under controlled conditions in a glasshouse (at 24/16° C., day/night; 14 hours light; 65% humidity), the plants are sprayed with an aqueous spray solution derived from the formulation of the technical active ingredient in acetone/water (50:50) solution containing 0.5% Tween 20 (polyoxyethelyene sorbitan monolaurate, CAS RN 9005-64-5). Compounds are applied at […]. The test plants are then grown in a glasshouse under controlled conditions in a glasshouse (at 24/16° C., day/night; 14 hours light; 65% humidity) and watered twice daily. After 13 days for pre and post-emergence, the test is evaluated for the percentage damage caused to the plant. The biological activities are shown in the following table on a five point scale (5=80-100%; 4=60-79%; 3=40-59%; 2=20-39%; 1=0-19%).

Lolium perenne (LOLPE) = details: 250 g/h, evaluated after 13 days, percentage damage on five point scale; for LOLPE POST: post-emergence; for LOLPE PRE: pre-emergence
Method: as §1

[1] = tested on: Echinochloa crus-galli (ECHCG); details: 250 g/h, evaluated after 13 days, percentage damage on five point scale; for ECHCG POST: post-emergence; for ECHCG PRE: pre-emergence
Method: as §1

Avena fatua (AVEFA) = details: 250 g/h, evaluated after 13 days, percentage damage on five point scale; for AVEFA POST: post-emergence; for AVEFA PRE: pre-emergence
Method: as §1

[2] = tested on: Alopecurus myosuroides (ALOMY); details: 250 g/h, evaluated after 13 days, percentage damage on five point scale; for ALOMY POST: post-emergence; for ALOMY PRE: pre-emergence
Method: as §1

| SMILES | SETFA POST (Setaria faberi (SETFA)) | SETFA PRE (Setaria faberi (SETFA)) | LOLPE POST (Lolium perenne (LOLPE)) | LOLPE PRE (Lolium perenne (LOLPE)) | ECHCG POST [1] | ECHCG PRE [1] | AVEFA POST (Avena fatua (AVEFA)) | AVEFA PRE (Avena fatua (AVEFA)) | ALOMY POST [2] | ALOMY PRE [2] |
| --- | --- | --- | --- | --- | --- | --- | --- | --- | --- | --- |
| CC(=O)N1CCC2(CC1)CC(=O)C(c1c(C)cc(-c3ncc(C#N)cn3)cc1C)C(=O)C2 [Compound A52] | 5 (5=80-100%) | 5 (5=80-100%) | 5 (5=80-100%) | 5 (5=80-100%) | 5 (5=80-100%) | 5 (5=80-100%) | 5 (5=80-100%) | 5 (5=80-100%) | 5 (5=80-100%) | 5 (5=80-100%) |
| CC(=O)N1CCC2(CC1)CC(=O)C(c1c(C)cc(C)cc1C)C(=O)C2 [Compound A42] | 5 (5=80-100%) | 5 (5=80-100%) | 5 (5=80-100%) | 5 (5=80-100%) | 1 (1=0-19%) | 3 (3=40-59%) | 5 (5=80-100%) | 5 (5=80-100%) | 5 (5=80-100%) | 5 (5=80-100%) |
| CCS(=O)(=O)N1CCC2(CC1)CC(=O)C(c1c(C)cc(-c3ncc(F)cn3)cc1C)C(=O)C2 [Compound A32] | 5 (5=80-100%) | 5 (5=80-100%) | 5 (5=80-100%) | 5 (5=80-100%) | 5 (5=80-100%) | 5 (5=80-100%) | 5 (5=80-100%) | 5 (5=80-100%) | 5 (5=80-100%) | 5 (5=80-100%) |
| Cc1cc(-c2ccc(F)cc2)cc(C)c1C1C(=O)CC2(CCN(C(=O)C(C)(C)C)CC2)CC1=O [Compound A61] | 5 (5=80-100%) | 5 (5=80-100%) | 5 (5=80-100%) | 5 (5=80-100%) | 5 (5=80-100%) | 5 (5=80-100%) | 4 (4=60-79%) | 2 (2=20-39%) | – | 5 (5=80-100%) |
| Cc1cc(-c2ncc(F)cn2)cc(C)c1C1C(=O)CC2(CCN(C(=O)C(C)(C)C)CC2)CC1=O [Compound A40] | 5 (5=80-100%) | 5 (5=80-100%) | 5 (5=80-100%) | 5 (5=80-100%) | 5 (5=80-100%) | 5 (5=80-100%) | 5 (5=80-100%) | 5 (5=80-100%) | 5 (5=80-100%) | 5 (5=80-100%) |
| COc1cc(-c2ccc(F)cc2)cc(C)c1C1C(=O)CC2(CCN(C(=O)CC#N)CC2)CC1=O [Compound A74] | 5 (5=80-100%) | 5 (5=80-100%) | 5 (5=80-100%) | 5 (5=80-100%) | 5 (5=80-100%) | 5 (5=80-100%) | 5 (5=80-100%) | 5 (5=80-100%) | – | – |
| COc1cc(-c2ccc(F)cc2)cc(C)c1C1C(=O)CC2(CCN(C(=O)C(F)F)CC2)CC1=O [Compound A71] | 5 (5=80-100%) | 5 (5=80-100%) | 5 (5=80-100%) | 5 (5=80-100%) | 5 (5=80-100%) | 5 (5=80-100%) | 5 (5=80-100%) | 5 (5=80-100%) | – | – |
| COc1cc(-c2ccc(F)cc2)cc(C)c1C1C(=O)CC2(CCN(C(=O)c3ccccn3)CC2)CC1=O [Compound A66] | 5 (5=80-100%) | 5 (5=80-100%) | 5 (5=80-100%) | 5 (5=80-100%) | 5 (5=80-100%) | 5 (5=80-100%) | 5 (5=80-100%) | 5 (5=80-100%) | – | – |
| COc1cc(-c2ccc(F)cc2)cc(C)c1C1C(=O)CC2(CCN(C(=O)NC(C)(C)C)CC2)CC1=O [Compound A68] | 5 (5=80-100%) | 5 (5=80-100%) | 5 (5=80-100%) | 4 (4=60-79%) | 5 (5=80-100%) | 5 (5=80-100%) | 5 (5=80-100%) | 4 (4=60-79%) | – | – |
| COc1cc(-c2ccc(F)cc2)cc(C)c1C1C(=O)CC2(CCN(C(=O)NC(=O)C(C)(C)C)CC2)CC1=O [Compound A69] | 5 (5=80-100%) | 5 (5=80-100%) | 5 (5=80-100%) | 4 (4=60-79%) | 5 (5=80-100%) | 5 (5=80-100%) | 5 (5=80-100%) | 2 (2=20-39%) | – | – |
| COc1cc(-c2ccc(F)cc2)cc(C)c1C1C(=O)CC2(CCN(C(=O)C3CC3)CC2)CC1=O [Compound A70] | 5 (5=80-100%) | 5 (5=80-100%) | 5 (5=80-100%) | 5 (5=80-100%) | 5 (5=80-100%) | 5 (5=80-100%) | 5 (5=80-100%) | 5 (5=80-100%) | – | – |
| CCS(=O)(=O)N1CCC2(CC1)CC(=O)C(c1c(C)cc(-c3ccc(F)cc3)cc1OC)C(=O)C2 [Compound A64] | 5 (5=80-100%) | 5 (5=80-100%) | 5 (5=80-100%) | 5 (5=80-100%) | 5 (5=80-100%) | 5 (5=80-100%) | 5 (5=80-100%) | 5 (5=80-100%) | – | – |
| Cc1cc(-c2ccc(F)cc2)cc(C)c1C1C(=O)CC2(CCN(C(=O)NC(=O)c3ccccn3)CC2)CC1=O [Compound A62] | 5 (5=80-100%) | 3 (3=40-59%) | 2 (2=20-39%) | 2 (2=20-39%) | 3 (3=40-59%) | 1 (1=0-19%) | 5 (5=80-100%) | 2 (2=20-39%) | – | – |
| Cc1cc(-c2ccc(F)cc2)cc(C)c1C1C(=O)CC2(CCN(C(=O)NC(C)(C)C)CC2)CC1=O [Compound A57] | 5 (5=80-100%) | 5 (5=80-100%) | 5 (5=80-100%) | 5 (5=80-100%) | 5 (5=80-100%) | 5 (5=80-100%) | 4 (4=60-79%) | 1 (1=0-19%) | – | – |
| COc1cc(-c2ccc(F)cc2)cc(C)c1C1C(=O)CC2(CCN(C(=O)C(C)(C)C)CC2)CC1=O [Compound A72] | 5 (5=80-100%) | 5 (5=80-100%) | 5 (5=80-100%) | 5 (5=80-100%) | 5 (5=80-100%) | 5 (5=80-100%) | 5 (5=80-100%) | 1 (1=0-19%) | – | – |
| COCC(=O)N1CCC2(CC1)CC(=O)C(c1c(C)cc(-c3ccc(F)cc3)cc1OC)C(=O)C2 [Compound A67] | 5 (5=80-100%) | 5 (5=80-100%) | 5 (5=80-100%) | 5 (5=80-100%) | 5 (5=80-100%) | 5 (5=80-100%) | 5 (5=80-100%) | 5 (5=80-100%) | – | – |
